Assay results as given in ChEMBL document CHEMBL1201862, “PubChem BioAssay data set” (2004).
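96-well plates; 48 h exposure; 5 concentrations. Endpoints by linear interpolation between flanking doses. Not reached: highest tested concentration assigned. GI50: concentration for 50% inhibition of growth.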 The source made the active and inactive calls. Cut-off read from the data, not from the text of the source: active = GI50 up to about 1.1 µM and inactive = higher.

Legend:
Assay in all cases: NCI-60 cell line screen, 48 h
T47D = tested on: T47D
Hs-578T = tested on: Hs-578T
SW-620 = tested on: SW-620
UACC-62 = tested on: UACC-62
SK-MEL-2 = tested on: SK-MEL-2
MOLT-4 = tested on: MOLT-4
A549 = tested on: A549
HCT-116 = tested on: HCT-116
OVCAR-8 = tested on: OVCAR-8
NCI-H460 = tested on: NCI-H460
TK-10 = tested on: TK-10
HCT-15 = tested on: HCT-15
UACC-257 = tested on: UACC-257
HOP-92 = tested on: HOP-92
OVCAR-3 = tested on: OVCAR-3
EKVX = tested on: EKVX
HCC 2998 = tested on: HCC 2998
CCRF-CEM = tested on: CCRF-CEM
PC-3 = tested on: PC-3

Measured: GI50

Cc1ccc(S(=O)(=O)Nc2nnc(S(N)(=O)=O)s2)cc1
> 100 µM: HCT-15
inactive: T47D > 100 µM | Hs-578T > 100 µM | SW-620 > 100 µM | UACC-62 > 100 µM | SK-MEL-2 > 100 µM | MOLT-4 > 100 µM | A549 > 100 µM | HCT-116 > 100 µM | OVCAR-8 > 100 µM | NCI-H460 > 100 µM | TK-10 > 100 µM | UACC-257 > 100 µM | HOP-92 > 100 µM | OVCAR-3 > 100 µM | EKVX > 100 µM | HCC 2998 > 100 µM

CC(C)c1ccc(C(O)(C(=O)O)c2ccc(C(C)C)cc2)cc1
46.6 µM: HCT-15
inactive: T47D 43.2 µM | Hs-578T 26.3 µM | SW-620 61.8 µM | UACC-62 44.6 µM | MOLT-4 48.8 µM | A549 33.1 µM | HCT-116 36.6 µM | OVCAR-8 54.1 µM | CCRF-CEM 49.4 µM | NCI-H460 47.2 µM | TK-10 79.3 µM | UACC-257 > 100 µM | HOP-92 31.8 µM | OVCAR-3 26.1 µM | EKVX 51.8 µM | PC-3 31.6 µM

C#Cc1cc(-c2nc3ccccc3s2)ccc1N
inactive: T47D 14.5 µM | SW-620 34.6 µM | UACC-62 17.5 µM | SK-MEL-2 16.7 µM | MOLT-4 22.6 µM | A549 16.3 µM | HCT-116 16.6 µM | OVCAR-8 29.2 µM | CCRF-CEM 23.3 µM | NCI-H460 16.5 µM | TK-10 15.1 µM | UACC-257 12.6 µM | HOP-92 11 µM | OVCAR-3 16.8 µM | EKVX 19.1 µM | PC-3 24.9 µM | HCC 2998 10.3 µM
17.5 µM: HCT-15

CCOc1cc2c(cc1O)/C(=N\OC)C[C@@H]1[C@@H]2CC[C@]2(C)[C@@H](O)CC[C@@H]12
inactive: TK-10 > 32.9 µM | HOP-92 7.64 µM | EKVX 10.8 µM | PC-3 1.39 µM | HCC 2998 1.25 µM
0.0653 µM: HCT-15
active: Hs-578T 0.0698 µM | SW-620 0.212 µM | UACC-62 < 0.0306 µM | SK-MEL-2 < 0.0358 µM | MOLT-4 0.255 µM | A549 0.542 µM | HCT-116 < 0.0296 µM | OVCAR-8 0.217 µM | CCRF-CEM 0.299 µM | NCI-H460 0.308 µM | OVCAR-3 < 0.0205 µM

COc1cccc2c1OC1c3ccccc3OCC1(O)C2 (centres undefined)
> 100 µM: HCT-15
inactive: T47D > 100 µM | SW-620 > 100 µM | UACC-62 > 100 µM | SK-MEL-2 > 100 µM | MOLT-4 > 100 µM | A549 > 100 µM | HCT-116 > 100 µM | OVCAR-8 > 100 µM | CCRF-CEM > 100 µM | TK-10 > 100 µM | UACC-257 > 100 µM | HOP-92 > 100 µM | OVCAR-3 > 100 µM | EKVX > 100 µM | PC-3 > 100 µM | HCC 2998 > 100 µM

COC(=O)NC(Nc1ccccn1)(C(F)(F)F)C(F)(F)F
> 100 µM: HCT-15
inactive: T47D > 100 µM | Hs-578T > 100 µM | SW-620 > 100 µM | UACC-62 > 100 µM | SK-MEL-2 > 100 µM | MOLT-4 > 100 µM | A549 > 100 µM | HCT-116 > 100 µM | OVCAR-8 > 100 µM | CCRF-CEM > 100 µM | NCI-H460 > 100 µM | TK-10 > 100 µM | UACC-257 > 100 µM | HOP-92 > 100 µM | OVCAR-3 > 100 µM | EKVX > 100 µM | HCC 2998 > 100 µM

CC(=O)/C(=C/NC(=S)N/N=C1\C(=O)Nc2ccccc21)C(=O)Nc1ccccc1C
> 100 µM: HCT-15
inactive: T47D 27.5 µM | SW-620 > 100 µM | UACC-62 > 100 µM | SK-MEL-2 > 100 µM | MOLT-4 > 100 µM | A549 > 100 µM | HCT-116 95.3 µM | OVCAR-8 > 100 µM | NCI-H460 > 100 µM | TK-10 > 100 µM | UACC-257 > 100 µM | HOP-92 > 100 µM | OVCAR-3 75.2 µM | EKVX 70.6 µM | HCC 2998 > 100 µM

CO/N=C(/C(=O)OC)c1ccccc1COc1cccc(C(F)(F)F)c1
inactive: T47D 9.55 µM | Hs-578T 25.8 µM | SW-620 42.5 µM | UACC-62 18.2 µM | SK-MEL-2 36.1 µM | MOLT-4 10.6 µM | A549 38.1 µM | HCT-116 10.8 µM | CCRF-CEM 16 µM | NCI-H460 28.8 µM | TK-10 11.4 µM | UACC-257 8.51 µM | HOP-92 36.2 µM | OVCAR-3 11.6 µM | EKVX 7.62 µM | PC-3 22 µM
29.2 µM: HCT-15

CCOc1ncn(-c2ccc(NC(=S)Nc3cnccn3)cc2)n1
inactive: T47D > 10 µM | Hs-578T > 10 µM | UACC-62 > 10 µM | SK-MEL-2 > 10 µM | MOLT-4 > 10 µM | A549 > 10 µM | OVCAR-8 > 10 µM | CCRF-CEM > 10 µM | NCI-H460 > 10 µM | TK-10 > 10 µM | UACC-257 > 10 µM | HOP-92 > 10 µM | OVCAR-3 > 10 µM | EKVX > 10 µM
> 10 µM: HCT-15

CN(C)CCNC(=O)c1cccc2c(NC(CCC(N)=O)C(=O)O)c3ccccc3nc12 (centres undefined)
4.08 µM: HCT-15
inactive: SW-620 4.55 µM | UACC-62 19.9 µM | SK-MEL-2 11.9 µM | MOLT-4 3.29 µM | A549 5.08 µM | HCT-116 6.03 µM | OVCAR-8 9.18 µM | CCRF-CEM 18.5 µM | NCI-H460 11.1 µM | TK-10 34.1 µM | UACC-257 8.2 µM | HOP-92 14.5 µM | OVCAR-3 12.6 µM | EKVX 14.5 µM | PC-3 5.43 µM | HCC 2998 12.5 µM

COC(=O)C1C(O)C(C(=O)OC)C(C)N(C)C1C (centres undefined)
inactive: SW-620 > 100 µM | UACC-62 > 100 µM | SK-MEL-2 > 100 µM | MOLT-4 > 100 µM | A549 > 100 µM | HCT-116 > 100 µM | OVCAR-8 > 100 µM | CCRF-CEM > 100 µM | NCI-H460 > 100 µM | TK-10 > 100 µM | UACC-257 > 100 µM | HOP-92 > 100 µM | OVCAR-3 > 100 µM | EKVX > 100 µM | PC-3 > 100 µM
> 100 µM: HCT-15

CN1B(c2ccccc2)N(C)C(=O)N(C)C1=O
> 100 µM: HCT-15
inactive: T47D > 100 µM | Hs-578T 81.3 µM | SW-620 > 100 µM | UACC-62 > 100 µM | SK-MEL-2 > 100 µM | A549 > 100 µM | HCT-116 > 100 µM | OVCAR-8 > 100 µM | CCRF-CEM > 100 µM | NCI-H460 > 100 µM | TK-10 > 100 µM | UACC-257 > 100 µM | HOP-92 > 100 µM | EKVX > 100 µM | PC-3 > 100 µM

CC(NC(=O)C(N)Cc1ccc(O)cn1)C(=O)O (centres undefined)
> 100 µM: HCT-15
inactive: Hs-578T > 100 µM | SW-620 > 100 µM | MOLT-4 > 100 µM | A549 > 100 µM | HCT-116 > 100 µM | OVCAR-8 > 100 µM | CCRF-CEM > 100 µM | NCI-H460 > 100 µM | TK-10 > 100 µM | UACC-257 > 100 µM | HOP-92 > 100 µM | OVCAR-3 > 100 µM | EKVX > 100 µM | PC-3 > 100 µM | HCC 2998 > 100 µM

CCOC(=O)C1=c2[nH]c3cccc4cccc(c43)n2C(=O)CC1
39.3 µM: HCT-15
inactive: T47D 22.5 µM | SW-620 29 µM | UACC-62 > 100 µM | SK-MEL-2 > 100 µM | MOLT-4 > 100 µM | A549 > 100 µM | HCT-116 45.6 µM | OVCAR-8 56.5 µM | CCRF-CEM 24.3 µM | NCI-H460 > 100 µM | TK-10 > 100 µM | UACC-257 > 100 µM | HOP-92 30.5 µM | OVCAR-3 > 100 µM | EKVX > 100 µM | PC-3 93.8 µM | HCC 2998 84.7 µM

O=C(O)c1ccc(Nc2nc3cc(C(F)(F)F)ccc3nc2C(=O)O)cc1
inactive: Hs-578T > 100 µM | SW-620 > 100 µM | SK-MEL-2 > 100 µM | MOLT-4 > 100 µM | HCT-116 > 100 µM | OVCAR-8 > 100 µM | NCI-H460 > 100 µM | OVCAR-3 > 100 µM | EKVX > 100 µM | PC-3 > 100 µM | HCC 2998 > 100 µM
> 100 µM: HCT-15

CCOP(=O)(OCC)C(N)c1ccc(Cl)cc1 (centres undefined)
> 100 µM: HCT-15
inactive: T47D > 100 µM | Hs-578T > 100 µM | SW-620 > 100 µM | UACC-62 > 100 µM | SK-MEL-2 > 100 µM | MOLT-4 > 100 µM | A549 > 100 µM | HCT-116 > 100 µM | OVCAR-8 > 100 µM | CCRF-CEM > 100 µM | NCI-H460 > 100 µM | TK-10 > 100 µM | UACC-257 > 100 µM | HOP-92 > 100 µM | EKVX > 100 µM | PC-3 > 100 µM

O=C(Cc1nc2ccc([N+](=O)[O-])cc2nc1O)C(=O)Nc1ccccc1[N+](=O)[O-]
44.1 µM: HCT-15
inactive: SW-620 > 100 µM | UACC-62 > 100 µM | SK-MEL-2 > 100 µM | MOLT-4 > 100 µM | A549 > 100 µM | HCT-116 95.7 µM | CCRF-CEM > 100 µM | NCI-H460 > 100 µM | TK-10 > 100 µM | UACC-257 > 100 µM | HOP-92 > 100 µM | OVCAR-3 > 100 µM | EKVX > 100 µM | HCC 2998 > 100 µM
